# Measurements: patent US8026247B2, “Bicyclic amides as kinase inhibitors” (Novartis AG, priority 2004, dated 2011)
row,melting point,Structure (SMILES)
1,255 to 257 °C,"CNc1cc(Oc2ccc3c(C(=O)Nc4ccc(F)c(C(F)(F)F)c4)cncc3c2)ncn1 [Example 95, 7-(6-Methylamino-pyrimidin-4-yloxy)-isoquinoline-4-carboxylic acid (4-fluoro-3-trifluoromethyl-phenyl)-amide]"
2,222 to 224 °C,"Nc1cc(Oc2ccc3c(C(=O)Nc4cccc(C(F)(F)F)c4)cccc3c2)ccn1 [Example 68, 6-(2-Amino-pyridin-4-yloxy)-naphthalene-1-carboxylic acid (3-trifluoromethyl-phenyl)-amide]"
3,80 to 82 °C,"CN(C)CCNC(=O)c1cc(Oc2ccc3c(C(=O)Nc4cccc(C(F)(F)F)c4)cccc3c2)ccn1 [Example 67, 4-[5-(3-Trifluoromethyl-phenylcarbamoyl)-naphthalen-2-yloxy]-pyridine-2-carboxylic acid (2-dimethylamino-ethyl)-amide]"
4,124 to 126 °C,"CC(C)(C)c1cc(NC(=O)c2cncc3cc(Oc4cc(N)ncn4)ccc23)n(-c2ccc(F)cc2)n1 [Example 94, 7-(6-Amino-pyrimidin-4-yloxy)-isoquinoline-4-carboxylic acid [5-tert-butyl-2-(4-fluoro-phenyl)-2H-pyrazol-3-yl]-amide]"
5,205 to 208 °C,"CNc1cc(Oc2ccc3c(C(=O)Nc4cccc(C(F)(F)F)c4)cncc3c2)ncn1 [Example 96, 7-(6-Methylamino-pyrimidin-4-yloxy)-isoquinoline-4-carboxylic acid (3-trifluoromethyl-phenyl)-amide]"
6,175 to 177 °C,"CNC(=O)c1cc(Oc2ccc3c(C(=O)Nc4cccc(C(F)(F)F)c4)cccc3c2)ccn1 [Example 65, 4-[5-(3-Trifluoromethyl-phenylcarbamoyl)-naphthalen-2-yloxy]-pyridine-2-carboxylic acid methylamide]"
7,225 to 227 °C,"Nc1nccc(CCc2ccc3c(C(=O)Nc4cccc(C(F)(F)F)c4)cccc3c2)n1 [Example 70, 6-[2-(2-Amino-pyrimidin-4-yl)-ethyl]-naphthalene-1-carboxylic acid (3-trifluoromethyl-phenyl)-amide]"
8,217 to 220 °C,"Nc1cc(C#Cc2ccc3c(C(=O)Nc4cccc(C(F)(F)F)c4)cccc3c2)ncn1 [Example 71, 6-(6-Amino-pyrimidin-4-ylethynyl)-naphthalene-1-carboxylic acid (3-trifluoromethyl-phenyl)-amide]"
9,230 to 232 °C,"COC(=O)Nc1cc(Oc2ccc3c(C(=O)Nc4cccc(C(F)(F)F)c4)cccc3c2)ccn1 [Example 69, {4-[5-(3-Trifluoromethyl-phenylcarbamoyl)-naphthalen-2-yloxy]-pyridin-2-yl}-carbamic acid methyl ester]"
10,131 to 133 °C,"CC(C)c1ccc(-n2nc(C(C)(C)C)cc2NC(=O)c2cncc3cc(Oc4cc(N)ncn4)ccc23)cc1 [Example 93, 7-(6-Amino-pyrimidin-4-yloxy)-isoquinoline-4-carboxylic acid [5-tert-butyl-2-(4-isopropyl-phenyl)-2H-pyrazol-3-yl]-amide]"
11,117 to 120 °C,"NC(=O)c1cc(Oc2ccc3c(C(=O)Nc4cccc(C(F)(F)F)c4)cccc3c2)ccn1 [Example 66, 4-[5-(3-Trifluoromethyl-phenylcarbamoyl)-naphthalen-2-yloxy]-pyridine-2-carboxylic acid amide]"

# The next lines start with the molecule.
row,Structure (SMILES),melting point
1,"CC(C)NC(=O)c1cc(Oc2ccc3c(C(=O)Nc4cccc(C(F)(F)F)c4)cccc3c2)ncn1 [Example 51, 6-[5-(3-Trifluoromethyl-phenylcarbamoyl)-naphthalen-2-yloxy]-pyrimidine-4-carboxylic acid isopropylamide]",205 to 208 °C
2,"CNc1cc(Oc2ccc3c(c2)OCCN3C(=O)Nc2ccc(C)c(C(F)(F)F)c2)ncn1 [Example 8, 7-(6-Methylamino-pyrimidin-4-yloxy)-2,3-dihydro-benzo[1,4]oxazine-4-carboxylic acid (4-methyl-3-trifluoromethyl-phenyl)-amide]",180 to 182 °C
3,"COC(=O)Nc1nccc(Oc2ccc3c(C(=O)Nc4cccc(C(F)(F)F)c4)cccc3c2)n1 [Example 19, 6-(2-Methoxycarbonylamino-pyrimidin-4-yloxy)-naphthalene-1-carboxylic acid (3-trifluoromethyl-phenyl)-amide]",199 to 200 °C
4,"CCCCOC(=O)c1cc(Oc2ccc3c(C(=O)Nc4cccc(C(F)(F)F)c4)cccc3c2)ccn1 [Example 64, 4-[5-(3-Trifluoromethyl-phenylcarbamoyl)-naphthalen-2-yloxy]-pyridine-2-carboxylic acid butyl ester]",128 to 130 °C
5,"CC(=O)Nc1nccc(Oc2ccc3c(C(=O)Nc4cccc(C(F)(F)F)c4)cccc3c2)n1 [Example 18, 6-(2-Acetylamino-pyrimidin-4-yloxy)-naphthalene-1-carboxylic acid (3-trifluoromethyl-phenyl)-amide]",216 to 217 °C
6,"N#Cc1cc(Oc2ccc3c(C(=O)Nc4cccc(C(F)(F)F)c4)cccc3c2)ncn1 [Example 43, 6-(6-Cyano-pyrimidin-4-yloxy)-naphthalene-1-carboxylic acid (3-trifluoromethyl-phenyl)-amide]",167 °C
7,"CNc1cc(Oc2ccc3c(c2)OCCN3C(=O)Nc2cccc(C(F)(F)F)c2)ncn1 [Example 9, 7-(6-Methylamino-pyrimidin-4-yloxy)-2,3-dihydro-benzo[1,4]oxazine-4-carboxylic acid (3-trifluoromethyl-phenyl)-amide]",180 °C
8,"Nc1cc(Sc2ccc3c(C(=O)Nc4cccc(C(F)(F)F)c4)cccc3c2)ncn1 [Example 58, 6-(6-Amino-pyrimidin-4-ylsulfanyl)-naphthalene-1-carboxylic acid (3-trifluoromethyl-phenyl)-amide]",205 °C
9,"Nc1cc(Sc2ccc3c(C(=O)Nc4cccc(OC(F)(F)F)c4)cccc3c2)ncn1 [Example 61, 6-(6-Amino-pyrimidin-4-ylsulfanyl)-naphthalene-1-carboxylic acid (3-trifluoromethoxy-phenyl)-amide]",197 to 199 °C
10,"CNCc1cc(Oc2ccc3c(C(=O)Nc4cccc(C(F)(F)F)c4)cccc3c2)ncn1 [Example 54, 6-(6-Methylaminomethyl-pyrimidin-4-yloxy)-naphthalene-1-carboxylic acid (3-trifluoromethyl-phenyl)-amide]",141 to 143 °C
11,"Nc1nc(Cl)cc(Oc2ccc3c(C(=O)Nc4cccc(C(F)(F)F)c4)cccc3c2)n1 [Example 13, 6-(2-Amino-6-chloro-pyrimidin-4-yloxy)-naphthalene-1-carboxylic acid (3-trifluoromethyl-phenyl)-amide]",234 to 236 °C
12,"Nc1cc(Oc2ccc3c(C(=O)Nc4cccc(C(F)(F)F)c4)cccc3c2)ncn1 [Example 26, 6-(6-Amino-pyrimidin-4-yloxy)-naphthalene-1-carboxylic acid (3-trifluoromethyl-phenyl)-amide]",243 to 244 °C
13,"Nc1cc(Sc2ccc3c(C(=O)Nc4ccc(F)c(C(F)(F)F)c4)cccc3c2)ncn1 [Example 57, 6-(6-Amino-pyrimidin-4-ylsulfanyl)-naphthalene-1-carboxylic acid (4-fluoro-3-trifluoromethyl-phenyl)-amide]",221 °C
14,"Nc1cc(Oc2ccc3c(C(=O)Nc4ccc(F)c(C(F)(F)F)c4)cccc3c2)ncn1 [Example 25, 6-(6-Amino-pyrimidin-4-yloxy)-naphthalene-1-carboxylic acid (4-fluoro-3-trifluoromethyl-phenyl)-amide]",224 to 225 °C
15,"O=C(Nc1cccc(C(F)(F)F)c1)c1cccc2cc(Oc3cc(CCl)ncn3)ccc12 [Example 53, 6-(6-Chloromethyl-pyrimidin-4-yloxy)-naphthalene-1-carboxylic acid (3-trifluoromethyl-phenyl)-amide]",178 to 181 °C
16,"Nc1nccc(Oc2ccc3c(c2)OCCN3C(=O)Nc2cccc(C(F)(F)F)c2)n1 [Example 10, 7-(2-Amino-pyrimidin-4-yloxy)-2,3-dihydro-benzo[1,4]oxazine-4-carboxylic acid (3-trifluoromethyl-phenyl)-amide]",161 to 163 °C
17,"Nc1cc(S(=O)(=O)c2ccc3c(C(=O)Nc4cccc(C(F)(F)F)c4)cccc3c2)ncn1 [Example 60, 6-(6-Amino-pyrimidine-4-sulfonyl)-naphthalene-1-carboxylic acid (3-trifluoromethyl-phenyl)-amide]",229 to 231 °C
18,"CNc1cc(Oc2ccc3c(C(=O)Nc4ccc(N5CCOCC5)c(C(F)(F)F)c4)cccc3c2)ncn1 [Example 40, 6-(6-Methylamino-pyrimidin-4-yloxy)-naphthalene-1-carboxylic acid (4-morpholin-4-yl-3-trifluoromethyl-phenyl)-amide]",156 to 157 °C
19,"CN(C)Cc1cc(Oc2ccc3c(C(=O)Nc4cccc(C(F)(F)F)c4)cccc3c2)ncn1 [Example 55, 6-(6-Dimethylaminomethyl-pyrimidin-4-yloxy)-naphthalene-1-carboxylic acid (3-trifluoromethyl-phenyl)-amide]",180 to 181 °C
